{"source": "patent US20250144107A1", "about": "“USE OF A PIKFYVE INHIBITOR IN COMBINATION WITH IMMUNOTHERAPY” (The Regents of the University of Michigan, priority 2023, published 2025)", "key": {"[1]": {"test_system": "cDCs", "assay": "Phenotype of cultured cDCs (flow cytometry, western blot)", "type": "cell-based, mice", "experimental": "FIG. 13G (Left) is a line graph of the relative median fluorescent intensity of the surface MHC-I on DMSO or apilimod-treated cDCs treated for 20 hours after 6 days of culture. FIG. 13G (Right) is a box and whisker plot of the surface MHC-I on DMSO or apilimod-treated cDCs treated for 20 hours after 6 days of culture\nFIG. 13H a western blot showing the total vinculin, loading control, and total MHC-I in DMSO or apilimod-treated, 20 hours, cDC lysates after 6 days of culture.\nFIG. 13K (Left) is a line graph of the relative median fluorescent intensity of the surface MHC-II on DMSO or apilimod-treated, 20 hours, cDCs treated after 6 days of culture. FIG. 13K (Right) is a box and whisker plot of the surface MHC-II on DMSO or apilimod-treated, 20 hours, cDCs treated after 6 days of culture.\nFIG. 13L a western blot showing the total vinculin, loading control, and total MHC-II in DMSO or apilimod-treated, 20 hours, cDC lysates after 6 days of culture.\nFIG. 13N a western blot showing the total histone H3, loading control, and total CD80 and CD86 in apilimod-treated, 20 hours, PIKfyve WT vs. KO cDC lysates after 6 days of culture.\nFIG. 13P is a series of six scatter plots of surface CD80 and CD86 on DMSO or apilimod-treated cDCs, with or without 20 hours of PolyI:C, 50 μg/ml, or lipopolysaccharide (LPS), 50 ng/ml, treatment after 6 days of culture.\nFIG. 13R a western blot showing the total vinculin, loading control, and total CD40 in DMSO or apilimod-treated, 20 hours, cDC lysates treated with or without additional LPS, 50 ng/ml, after 6 days of culture day 6.\nFIG. 19B is a line graph of representative density plot of median fluorescent intensity of surface XCR1 in DMSO or apilimod-treated, 20 hours, cDCs after 6 days of culture.\nFIG. 26G is a line graph of the relative median fluorescent intensity of the surface MHC-I, H2-kb, H2-kd, on DMSO or apilimod-treated cDCs with or without PolyI:C, 50 μg/ml or LPS, 50 ng/ml, treatment, 20 hours, after 6 days of culture.\nFIG. 26H is a line graph of the relative median fluorescent intensity of the surface MHC-II, MHC-IA-IE, on DMSO or apilimod-treated cDCs with or without PolyI:C, 50 μg/ml or LPS, 50 ng/ml, treatment, 20 hours, after 6 days of culture."}, "[2]": {"assay": "Overall comparison across preclinical models", "type": "in vivo", "conditions": "in many of models; dose of apilimod higher than ESK981", "excerpt": "This could be, at least partially, explained by the reported instability of apilimod See, e.g., Ikonomov, O. C. et al., Toxicol. Appl. Pharmacol. 2019; 383:114771."}, "[3]": {"test_system": "IL-12 in cDCs", "assay": "Il12b RT-qPCR and IL-12 ELISA in cDCs", "type": "cell-based, mice", "experimental": "FIG. 21E is a bar graph comparison of Il12b expression fold change by RT-qPCR in apilimod vs. DMSO-treated, 3 or 12 hours, cDCs after 6 days of culture.\nFIG. 21F is a bar graph comparison of IL-12p40 protein levels by ELISA in media from apilimod vs. DMSO-treated, 12 hours, cDCs after 6 days of culture.\nFIG. 21G is a bar graph Supp. 5 g Comparison of IL-12p70 protein levels by ELISA in media from apilimod vs. DMSO-treated, 24 hours, cDCs after 6 days of culture."}, "[4]": {"test_system": "cDCs co-cultured with OT-I and OT-II cells", "assay": "cDC antigen presentation and OT-I/OT-II co-culture", "type": "cell-based, mice", "experimental": "FIG. 13T is a box and whisker plot of the percentage of IFNγ^+ OT-I cells after 72 hours of co-culture with DMSO or apilimod pre-treated cDCs with or without sOVA, 10 μg/ml.\nFIG. 13V is a box and whisker plot of the percentage of IFNγ^+ OT-II cells after 72 hours of co-culture with DMSO or apilimod pre-treated cDCs with or without sOVA, 10 μg/ml.\nFIG. 19G is a line graph (Left) and box and whisker plot (Right) of relative median fluorescent intensity of surface H-2kb-SIINFEKL in DMSO or apilimod-treated cDCs with or without 12 hours of pOVA, 100 ng/ml, treatment.\nFIG. 19H is a scatter plot (Left) and box and whisker plot (Right) of relative median fluorescent intensity of percent H2kb-SIINFEKL^+ cells in DMSO or apilimod-treated cDCs with or without 12 hours of pOVA, 100 ng/ml, treatment.\nFIG. 20D is a scatter plot (Left) and box and whisker plot (Right) of percentage of IFNγ^+ OT-I cells after 48 hours of co-culture with DMSO or apilimod pre-treated cDCs with or without pOVA, 100 ng/ml.\nFIG. 20E is a scatter plot (Left) and box and whisker plot (Right) of percentage of granzyme B^+ OT-I cells after 48 hours of co-culture with DMSO or apilimod pre-treated cDCs with or without pOVA, 100 ng/ml.\nFIG. 20H is a box and whisker plot of the percent of Ki67^+ OT-I cells after 72 hours of co-culture with DMSO or apilimod pre-treated cDCs with or without sOVA, 10 μg/ml.\nFIG. 20I is a box and whisker plot of the percent of Ki67^+ OT-II cells after 72 hours of co-culture with DMSO or apilimod pre-treated cDCs with or without sOVA, 10 μg/ml."}}, "data": [{"smiles": "Cc1cccc(/C=N/Nc2cc(N3CCOCC3)nc(OCCc3ccccn3)n2)c1", "note": "[apilimod, N-[(E)-(3-methylphenyl)methylideneamino]-6-morpholin-4-yl-2-(2-pyridin-2-ylethoxy)pyrimidin-4-amine]", "values": [{"measurement": "surface and total protein expression of MHC-II", "setting": "[1]; 20 hours", "value": "increased"}, {"measurement": "MHC-I and MHC-II expression", "setting": "[1]; DCs in vitro, each agent", "value": "stimulated"}, {"measurement": "CD80 and CD86 expression", "setting": "[1]; WT DCs, in a dose-dependent manner", "value": "induced"}, {"measurement": "total expression of CD40", "setting": "[1]; added to LPS treatment, vs DMSO", "value": "increased"}, {"measurement": "CD80+CD86+ cDCs", "setting": "[1]; alone and in combination with PolyI:C and LPS", "value": "increase"}, {"measurement": "MHC-I and MHC-II expression", "setting": "[1]; apilimod added to PolyI:C or LPS", "value": "further enhanced"}, {"measurement": "surface and total protein expression of MHC-I", "setting": "[1]; cDCs from WT mice, 20 hours", "value": "increased"}, {"measurement": "total surface expression of XCR1", "setting": "[1]; cultured cDCs, 20 hours, vs DMSO", "value": "increase"}, {"measurement": "efficacy relative to ESK981", "setting": "[2]", "value": "weaker than ESK981"}, {"measurement": "secretion of IL-12p40", "setting": "[3]; ELISA", "value": "increased"}, {"measurement": "secretion of IL-12p70", "setting": "[3]; ELISA", "value": "increased"}, {"measurement": "Il12b transcripts", "setting": "[3]; RT-qPCR", "value": "increased"}, {"measurement": "total intensity and percentage of cells with H2-kb-SIINFEKL surface expression", "setting": "[4]; pOVA, vs DMSO", "value": "greater"}, {"measurement": "T cell activation (IFNγ+ and granzyme B+ OT-I cells)", "setting": "[4]; peptide antigen-loaded cDCs, vs DMSO", "value": "increase"}, {"measurement": "percentages of Ki67+ and IFNγ+ OT-I cells", "setting": "[4]; sOVA-loaded cDCs, vs DMSO", "value": "increases"}, {"measurement": "percentages of Ki67+ and IFNγ+ OT-II cells", "setting": "[4]; sOVA-loaded cDCs, vs control", "value": "higher percentages"}]}]}
